In patent publication US8192962B2, “Processes for detecting toxic substances” (Daikin Industries, Ltd., priority 2001, dated 2012):

System: Transport facilitation protein genes
Experiment: DNA chip mRNA expression in yeast, transport facilitation protein genes (Table 5)
Assay type: cell-based, Saccharomyces cerevisiae S288C
Summary of the method: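 Chemical exposure: 2 h, log-phase S. cerevisiae S288C, YPD, 25° C., dose set to inhibit growth without death. Profiling: mRNA labeled by reverse transcription with Cy3- or Cy5-dUTP, hybridized to whole-genome array. Output: fluorescence ratio against untreated culture.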

Structure (SMILES): [Cl][Pb][Cl] [(4), PbCl2]
- The level of expressed mRNA in the presence of chemical substance/The level of expressed mRNA in the absence of chemical substance (yeast gene YGR260W): 0.8
- The level of expressed mRNA in the presence of chemical substance/The level of expressed mRNA in the absence of chemical substance (yeast gene YGR281W): 2.2
- The level of expressed mRNA in the presence of chemical substance/The level of expressed mRNA in the absence of chemical substance (yeast gene YHL035C): 1.9
- The level of expressed mRNA in the presence of chemical substance/The level of expressed mRNA in the absence of chemical substance (yeast gene YHL040C): 0.4
- The level of expressed mRNA in the presence of chemical substance/The level of expressed mRNA in the absence of chemical substance (yeast gene YHL047C): 1.0
- The level of expressed mRNA in the presence of chemical substance/The level of expressed mRNA in the absence of chemical substance (yeast gene YHR026W): 1.0
- The level of expressed mRNA in the presence of chemical substance/The level of expressed mRNA in the absence of chemical substance (yeast gene YHR092C): 2.5
- The level of expressed mRNA in the presence of chemical substance/The level of expressed mRNA in the absence of chemical substance (yeast gene YHR094C): 1.6
- The level of expressed mRNA in the presence of chemical substance/The level of expressed mRNA in the absence of chemical substance (yeast gene YHR175W): 1.5
- The level of expressed mRNA in the presence of chemical substance/The level of expressed mRNA in the absence of chemical substance (yeast gene YIL006W): 2.9
- The level of expressed mRNA in the presence of chemical substance/The level of expressed mRNA in the absence of chemical substance (yeast gene YIL022W): 1.6
- The level of expressed mRNA in the presence of chemical substance/The level of expressed mRNA in the absence of chemical substance (yeast gene YIL056W): 1.4
- The level of expressed mRNA in the presence of chemical substance/The level of expressed mRNA in the absence of chemical substance (yeast gene YIL088C): 1.3
- The level of expressed mRNA in the presence of chemical substance/The level of expressed mRNA in the absence of chemical substance (yeast gene YJL034W): 0.8
- The level of expressed mRNA in the presence of chemical substance/The level of expressed mRNA in the absence of chemical substance (yeast gene YJL212C): 0.5
- The level of expressed mRNA in the presence of chemical substance/The level of expressed mRNA in the absence of chemical substance (yeast gene YJL219W): 1.6
- The level of expressed mRNA in the presence of chemical substance/The level of expressed mRNA in the absence of chemical substance (yeast gene YJR077C): 1.6
- The level of expressed mRNA in the presence of chemical substance/The level of expressed mRNA in the absence of chemical substance (yeast gene YJR106W): 1.1
- The level of expressed mRNA in the presence of chemical substance/The level of expressed mRNA in the absence of chemical substance (yeast gene YJR121W): 1.0
- The level of expressed mRNA in the presence of chemical substance/The level of expressed mRNA in the absence of chemical substance (yeast gene YKL016C): 1.7
- The level of expressed mRNA in the presence of chemical substance/The level of expressed mRNA in the absence of chemical substance (yeast gene YKL146W): 0.9
- The level of expressed mRNA in the presence of chemical substance/The level of expressed mRNA in the absence of chemical substance (yeast gene YKR039W): 1.7
- The level of expressed mRNA in the presence of chemical substance/The level of expressed mRNA in the absence of chemical substance (yeast gene YKR067W): 2.5
- The level of expressed mRNA in the presence of chemical substance/The level of expressed mRNA in the absence of chemical substance (yeast gene YLL028W): 0.5
- The level of expressed mRNA in the presence of chemical substance/The level of expressed mRNA in the absence of chemical substance (yeast gene YLR081W): 3.6
- The level of expressed mRNA in the presence of chemical substance/The level of expressed mRNA in the absence of chemical substance (yeast gene YLR295C): 1.7
- The level of expressed mRNA in the presence of chemical substance/The level of expressed mRNA in the absence of chemical substance (yeast gene YLR348C): 1.2
- The level of expressed mRNA in the presence of chemical substance/The level of expressed mRNA in the absence of chemical substance (yeast gene YLR378C): 0.5
- The level of expressed mRNA in the presence of chemical substance/The level of expressed mRNA in the absence of chemical substance (yeast gene YMR011W): 5.5
- The level of expressed mRNA in the presence of chemical substance/The level of expressed mRNA in the absence of chemical substance (yeast gene YMR162C): 2.0
- The level of expressed mRNA in the presence of chemical substance/The level of expressed mRNA in the absence of chemical substance (yeast gene YMR203W): 1.4
- The level of expressed mRNA in the presence of chemical substance/The level of expressed mRNA in the absence of chemical substance (yeast gene YNL055C): 2.0
- The level of expressed mRNA in the presence of chemical substance/The level of expressed mRNA in the absence of chemical substance (yeast gene YNL259C): 1.2
- The level of expressed mRNA in the presence of chemical substance/The level of expressed mRNA in the absence of chemical substance (yeast gene YNR072W): 0.7
- The level of expressed mRNA in the presence of chemical substance/The level of expressed mRNA in the absence of chemical substance (yeast gene YOL119C): 2.3
- The level of expressed mRNA in the presence of chemical substance/The level of expressed mRNA in the absence of chemical substance (yeast gene YOL156W): 1.1
- The level of expressed mRNA in the presence of chemical substance/The level of expressed mRNA in the absence of chemical substance (yeast gene YOL163W): 3.3
- The level of expressed mRNA in the presence of chemical substance/The level of expressed mRNA in the absence of chemical substance (yeast gene YOR035C): 1.2
- The level of expressed mRNA in the presence of chemical substance/The level of expressed mRNA in the absence of chemical substance (yeast gene YOR130C): 1.0
- The level of expressed mRNA in the presence of chemical substance/The level of expressed mRNA in the absence of chemical substance (yeast gene YOR153W): 1.1
- The level of expressed mRNA in the presence of chemical substance/The level of expressed mRNA in the absence of chemical substance (yeast gene YOR273C): 1.0
- The level of expressed mRNA in the presence of chemical substance/The level of expressed mRNA in the absence of chemical substance (yeast gene YOR316C): 1.5
- The level of expressed mRNA in the presence of chemical substance/The level of expressed mRNA in the absence of chemical substance (yeast gene YOR328W): 1.0
- The level of expressed mRNA in the presence of chemical substance/The level of expressed mRNA in the absence of chemical substance (yeast gene YOR332W): 1.0
- The level of expressed mRNA in the presence of chemical substance/The level of expressed mRNA in the absence of chemical substance (yeast gene YOR348C): 2.0
- The level of expressed mRNA in the presence of chemical substance/The level of expressed mRNA in the absence of chemical substance (yeast gene YPL036W): 0.9
- The level of expressed mRNA in the presence of chemical substance/The level of expressed mRNA in the absence of chemical substance (yeast gene YPL134C): 1.6
- The level of expressed mRNA in the presence of chemical substance/The level of expressed mRNA in the absence of chemical substance (yeast gene YPL271W): 1.2
- The level of expressed mRNA in the presence of chemical substance/The level of expressed mRNA in the absence of chemical substance (yeast gene YPR192W): 5.0
- The level of expressed mRNA in the presence of chemical substance/The level of expressed mRNA in the absence of chemical substance (yeast gene YPR194C): 2.9
